# According to patent US12291533B2, “Substituted fused pyrimidine compounds and uses thereof” (Northwestern University, priority 2017, dated 2025):
# Biological target: T1, glucocerebrosidase (Homo sapiens, UniProt P04062)
# T1 sequence (P04062 40-536): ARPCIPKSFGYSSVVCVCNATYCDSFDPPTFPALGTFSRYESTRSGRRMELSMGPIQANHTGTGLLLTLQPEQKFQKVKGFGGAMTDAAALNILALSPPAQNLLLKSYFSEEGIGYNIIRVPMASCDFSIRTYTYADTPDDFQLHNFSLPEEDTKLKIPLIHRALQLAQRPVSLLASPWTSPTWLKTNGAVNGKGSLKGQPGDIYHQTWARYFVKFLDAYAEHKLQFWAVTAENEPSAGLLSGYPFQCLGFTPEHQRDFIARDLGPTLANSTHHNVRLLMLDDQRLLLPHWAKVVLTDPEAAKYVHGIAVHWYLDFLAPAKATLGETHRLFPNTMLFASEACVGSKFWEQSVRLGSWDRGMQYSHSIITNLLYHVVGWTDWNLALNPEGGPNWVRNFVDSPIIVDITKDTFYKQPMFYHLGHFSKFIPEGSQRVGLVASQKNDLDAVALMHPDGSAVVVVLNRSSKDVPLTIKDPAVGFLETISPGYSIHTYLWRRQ
# Experiment: Glucocerebrosidase activity assay with blue substrate (4MU-Glc)
# Format: biochemical
# Settings: Table 2; additional compounds, tested as described in Example 2
# Experimental: Example 2—Glucocerebrosidase Activity Assay with Blue Substrate
# The compounds in DMSO solution 0.5 μL/well were transferred to a black 96-well plate (the final titration was 24 nM to 50 μM, 12 concentrations, 2× dilution). 33.5 μL enzyme solution (7.5 nM final concentration) was transferred to the wells. After 5 min of incubation at room temperature, the enzyme reaction was initiated by the addition of 33 μL/well blue substrate. Final concentration of the blue substrate (4MU-Glc) was 1.5 mM. The blue substrate reaction was terminated by the addition of 33 μL/well stop solution (1 M NaOH and 1 M glycine mixture, pH 10) after 30 min of incubation at 37° C. The fluorescence was then measured in the Biotek Synergy H1 multi-mode plate reader with Ex=365 nm and Em=440 nm.
# Additional compounds were synthesized and tested for glucocerebrosidase modulatory activity as described in Example 1 and Example 2.
Compound,AC50 [µM],Emax [%]
CN(CCOc1ccc2[nH]ccc2c1)c1nc(-c2cccnc2)nc2ccccc12 [Compound 147],4.47,450
c1cncc(-c2nc(N3CCc4cccnc4C3)c3ccccc3n2)c1 [Compound 148],35,285
CCn1ncc2c(N(C)CCOc3ccc(CNC(=O)CCCCNC(=O)OC(C)(C)C)cc3)nc(-c3ccsc3)nc21 [Compound 149],0.4,157
CCN1Cc2nc(-c3cccnc3)nc(N(C)CCOc3ccccc3)c2C1 [Compound 150],1.25,135
CN(CCOc1ccccc1)c1nc(-c2cccnc2)nc2c1cnn2-c1ccccc1 [Compound 151],2.5,305
CN(CCOc1ccccc1)c1nc(-c2cccnc2)nc2c1cnn2Cc1ccccc1 [Compound 152],2,425
CN(CCOc1ccccc1)c1nc(-c2cccnc2)nc2c1oc1ccccc12 [Compound 153],1.58,178
c1ccc(O[C@H]2CCN(c3nc(-c4cccnc4)nc4ccccc34)C2)cc1 [Compound 154],4.47,190
c1ccc(O[C@@H]2CCN(c3nc(-c4cccnc4)nc4ccccc34)C2)cc1 [Compound 155],1.78,260
CCn1ncc2c(N3CC[C@H](Oc4ccccc4)C3)nc(-c3cccnc3)nc21 [Compound 156],39.8,220
CCn1ncc2c(N3CC[C@@H](Oc4ccccc4)C3)nc(-c3cccnc3)nc21 [Compound 157],22.4,580
CCn1ncc2c(N3CC[C@H](Oc4ccccc4)C3)nc(-c3cncc(C(F)(F)F)c3)nc21 [Compound 158],39.8,163
CCn1ncc2c(N3CC[C@@H](Oc4ccccc4)C3)nc(-c3cncc(C(F)(F)F)c3)nc21 [Compound 159],44.6,242
CCn1ncc2c(N3CC[C@H](Oc4ccccc4)C3)nc(-c3cncc(Cl)c3)nc21 [Compound 160],28.2,130
CCn1ncc2c(N3CC[C@@H](Oc4ccccc4)C3)nc(-c3cncc(Cl)c3)nc21 [Compound 161],39.8,190

# Continued, values first:
AC50 [µM],Emax [%],Compound
25.1,475,CCn1ncc2c(N3CCC[C@H](Oc4ccccc4)C3)nc(-c3cccnc3)nc21 [Compound 163]
28.2,425,CCn1ncc2c(N3CCC[C@@H](Oc4ccccc4)C3)nc(-c3cccnc3)nc21 [Compound 164]
3.98,305,c1ccc(OC2CN(c3nc(-c4cccnc4)nc4ccccc34)C2)cc1 [Compound 165]
6.31,276,c1ccc(OC2CCN(c3nc(-c4cccnc4)nc4ccccc34)CC2)cc1 [Compound 166]
28.2,250,CN(CCOc1ccccc1)c1cc(N2CCC(O)CC2)nc(Cl)n1 [Compound 167]
4,360,CN(CCOc1ccccc1)c1cc(Cl)nc(-c2cccnc2)n1 [Compound 168]
15.8,191,Cc1cc(-c2nc(N(C)CCOc3ccccc3)c3ccccc3n2)ccn1 [Compound 169]
28.2,740,CN(CCOc1ccccc1)c1cc(N2CCC(O)CC2)nc(-c2cccnc2)n1 [Compound 170]
5,280,CN(CCOc1ccccc1)c1cc(N2CC[C@@H](O)C2)nc(-c2cccnc2)n1 [Compound 171]
8.9,525,CN(CCOc1ccccc1)c1cc(C2CC[C@H](O)C2)nc(-c2cccnc2)n1 (stereo partly drawn) [Compound 172]
2.5,260,CN(CCOc1ccccc1)c1cc(N2CC(O)C2)nc(-c2cccnc2)n1 [Compound 173]
14.1,625,CN(CCOc1ccccc1)c1cc(N2CCC(CO)CC2)nc(-c2cccnc2)n1 [Compound 174]
6.31,118,CCCCCCCCCN(C)c1nc(-c2cccnc2)nc2ccccc12 [Compound 179]
5.01,225,CN(CCOc1ccccc1)c1nc(-c2cccnc2)nc2cccnc12 [Compound 182]
2.5,340,CC(C)Cn1ncc2c(N(C)CCOc3ccccc3)nc(-c3cccnc3)nc21 [Compound 183]
2.82,,CCn1ncc2c(N(C)CCOc3ccc(CNC(=O)CCCCCNC(=O)CCOCCOCCOCCOCCNC(=O)OC(C)(C)C)cc3)nc(-c3cccnc3)nc21 [Compound 184]
0.8,325,CCCn1ncc2c(N(C)CCOc3ccccc3)nc(-c3cccnc3)nc21 [Compound 187]
